According to US20190292546A1, “TLR3 AGONIST FOR USE FOR INDUCING APOPTOSIS IN SENESCENT CANCER CELLS” (Centre Léon-Bérard, priority 2016, published 2019):
“Also recorded” adds a separate entry of the source.

Tests used:
[1] = system: Untreated or Radiation-Induced Senescent WT and TLR3 KO NCI-H292 Cells; assay: TLR3-triggered apoptosis (Annexin V-FITC PI flow cytometry) in Radiation-Induced Senescent Cells; format: cell-based, human; conditions: 10 μg/ml Poly(I:C), 24 hours, senescence by 8 Grey irradiation vs untreated NCI-H292, FIG. 6
Description: NCI-H292 human Non-Small-Cell Cancer Cells were plated at 5000 cells/cm^2 in a 6-well plate in RPMI supplemented with 10% FCS and 1% Hepes/1% NAPy/PS. They were irradiated with 8 Grey 16 hours after plating, and the medium was changed right after irradiation.
Radiation-Induced Senescent Cells' susceptibility to TLR3-triggered apoptosis was measured. Untreated or Radiation-Induced Senescent WT and TLR3 KO NCI-H292 Cells were incubated for 24 hours with 10 μg/ml Poly(I:C) (Invivogen), then cells were stained at 4° C. with Annexin V-FITC PI (Biolegend) and analyzed on a Becton Disckison FACSCalibur flow cytometer.

[2] = system: TLR3 WT and TLR3 KO NCI-H292 untreated or Paclitaxel-Treated Cells; assay: TLR3-triggered apoptosis (Annexin V-FITC/PI flow cytometry) in Paclitaxel-Treated Cells; format: cell-based, human; conditions: 4 μg/ml Poly(I:C), 24 hours, paclitaxel-induced senescent vs untreated NCI-H292, FIG. 5
Description: (§1) NCI-H292 human Non-Small-Cell Cancer Cells were plated at 5000 cells/cm^2 in a 6-well plate in RPMI supplemented with 10% FCS and 1% Hepes/1% NAPy/PS. They were treated after 16-24 hours of plating and for 7 to 10 days with 4 nM paclitaxel (Sigma) or with DMSO (“solvent”), with a change of medium on day 4. The following tests were then performed to ascertain the Paclitaxel-Treated Cells' senescence status.
TLR3 WT and TLR3 KO NCI-H292 untreated or Paclitaxel-Treated Cells were incubated for 24 hours with 4 μg/ml Poly(I:C) (Invivogen), then cells were stained at 4° C. with Annexin V-FITC and PI (Biolegend) and analyzed on a Becton Disckison FACSCalibur flow cytometer.

[3] = system: Untreated or Oxidative Stress-induced Senescent WT and TLR3 KO NCI-H292 Cells; assay: TLR3-triggered apoptosis (Annexin V-FITC flow cytometry) in Oxidative Stress-induced Senescent Cells; format: cell-based, human; conditions: 10 μg/ml Poly(I:C), 24 hours, senescence by 300 μM H2O2 vs untreated NCI-H292, FIG. 7
Description: NCI-H292 human Non-Small-Cell Cancer Cells were plated at 5000 cells/cm^2 in a 6-well plate in RPMI supplemented with 10% FCS and 1% Hepes/1% NAPy/PS. They were treated with 300 μM H2O2 16 hours after plating, and the medium was changed 1 hour after H2O2 treatment.
Oxidative Stress-induced Senescent Cells' susceptibility to TLR3-triggered apoptosis was measured. Untreated or Oxidative Stress-induced Senescent WT and TLR3 KO NCI-H292 Cells were incubated for 24 hours with 10 μg/ml Poly(I:C) (Invivogen), then cells were stained at 4° C. with Annexin V-FITC (Biolegend) and analyzed on a Becton Disckison FACSCalibur flow cytometer.

[4] = system: NCI-H292 human Non-Small-Cell Cancer Cells; assay: Senescence status of Paclitaxel-Treated Cells (phase-contrast morphology, SA-β-GAL, IL-8); format: cell-based; conditions: 4 nM paclitaxel
Description: as §1
(§2) 1) An inverted phase-contrast light microscope was used at 40× magnification to evaluate morphology of the Paclitaxel-Treated Cells. […] 2) The senescence-associated β-galactosidase [SA-β-GAL] activity was measured in the Paclitaxel-Treated Cells described above using the Senescence beta-galactosidase Staining Kit (Cell Signaling Technology) (FIG. 2). 3) The secretion of IL-8 as part of the senescence-associated secretome (Tchkonia et al., 2013; J Clin Invest. 123(3):966-72) was quantified in the culture supernatant of the Paclitaxel-Treated Cells using an ELISA kit (Biolegend Kit hulL8), and read on a TECAN microplate reader).

NCI-H292 cells = assay: TLR3 expression by intracellular staining and flow cytometry; format: cell-based, human; conditions: 7 days of culture with paclitaxel 4 nM, anti-TLR3.1 antibody, FIG. 4
Description: To ascertain that TLR3 expression was not lost upon senescence, Paclitaxel-Treated Cells were harvested, fixed and permeabilized with the Cytoperm/Cytofix kit (Becton Dickinson), then stained at 4° C. for TLR3 (anti-TLR3.1 antibody (Dendritics)+goat anti-mouse Alexa 647) and analyzed on a Becton Disckison FACSCalibur flow cytometer.

[5] = system: NCI-H292 human Non-Small-Cell Cancer Cells; assay: IL-8 secretion in culture supernatant by ELISA; format: cell-based; conditions: 4 nM paclitaxel, 1, 3 or 7 days, last 24H of culture, FIG. 3
Description: NCI-H292 human Non-Small-Cell Cancer Cells were plated at 5000 cells/cm^2 in a 6-well plate in RPMI supplemented with 10% FCS and 1% Hepes/1% NAPy/PS. […] The following tests were then performed to ascertain the Paclitaxel-Treated Cells' senescence status.
as §2

| Compound | susceptibility to TLR3-triggered apoptosis [1] | susceptibility to TLR3-triggered apoptosis [2] | susceptibility to TLR3-triggered apoptosis [3] | morphology of the Paclitaxel-Treated Cells (observed changes) ([4]; 7 to 10 days, NCI-H292, phase-contrast microscopy 40x, FIG. 1) | senescence status of the cells ([4]; NCI-H292, FIGS. 1-3) | expression of TLR3 by NCI-H292 cells (NCI-H292 cells) | secretion of IL-8 in the culture supernatant [5] |
| --- | --- | --- | --- | --- | --- | --- | --- |
| Polyinosine-polycytidylic acid [Poly(I:C)] | induces apoptosis; also recorded: more sensitive to TLR3-triggered apoptosis | more sensitive to TLR3-triggered apoptosis | induces apoptosis; also recorded: more sensitive to TLR3-triggered apoptosis | – | – | – | – |
| CC(=O)O[C@H]1C(=O)[C@@]2(C)[C@H]([C@H](OC(=O)c3ccccc3)[C@]3(O)C[C@H](OC(=O)[C@H](O)[C@@H](NC(=O)c4ccccc4)c4ccccc4)C(C)=C1C3(C)C)[C@]1(OC(C)=O)CO[C@@H]1C[C@@H]2O [Paclitaxel, paclitaxel] | – | – | – | a stop in cell division and enlargement in size | have become senescent | increased | Large amounts of IL-8 |
